No end group written: not given here.
Columns and labels:
JNK = assay: In vitro phosphorylation of the peptide; assay type: biochemical
AP1 complex = assay: Transcriptional activity mediated from AP1 target sequences; assay type: cell-based; conditions: peptide-expressing melanoma cells
Fas [1] = assay: Cell surface expression of Fas by FACS; assay type: cell-based, human; conditions: peptide-expressing LU1205; control 122
Description: Treatment and apoptosis studies of stably transfected melanoma cells. Cells were exposed to UVC at 75 J/m^2 as previously described (Ronai, Z., et al., Oncogene 1998; 16:523-531). SB203580 (1-10 μM) (Calbiochem®, San Diego, Calif.), NCS (50-100 ng/ml) and mitomycin C (MMC) (0.2-1 μM) were used to treat melanoma cells. Flow cytometric analysis was performed on a FACSCalibur™ flow cytometer (Becton Dickinson) using CellQuest™ software as described previously (Nicoletti et al., J. Immunol. Methods 1991; 139:271-279). Cells were pelleted and resuspended in 0.5 ml of hypotonic buffer with 0.1% Triton X-100 containing PI (40 μg/ml) and DNase-free RNase A (1 mg/ml). Cells were incubated at 37° C. for 30 min and analyzed on a FACSCalibur™ flow cytometer (Becton Dickinson). The percentage of cells to the left of the diploid G0/1 peak, characteristic of hypodiploid cells that have lost DNA, was defined as the percentage of apoptotic cells. Analysis was performed with light scatter gating. Surface expression of Fas was determined using anti-Fas-PE antibody (PharMingen® CA) and flow cytometric analysis. Cell surface expression is measured as mean fluorescence intensity (MFI).

FAS [2] = assay: Cell surface FAS receptor by FACS in SW1 cells; assay type: cell-based, mouse; conditions: peptide-expressing SW1 vs control
Description: Electrophoretic mobility shift assays were performed as described. (Ivanov and Ronada, J Biol Chem 1999; 274(20):14079-89). GST binding assays were performed with GST-peptide II as described (Adler et al., Proc Natl Acad Sci USA 1995; 92 10585-9). SW1 cells expressing control vector or peptide II were subjected to FACS analysis following their incubation with antibodies to the cell surface receptor of FAS as described above.

[3] = tested on: ATF2/c-Jun transcriptional activity; assay: Jun2-Luciferase reporter in SW1 clones; assay type: cell-based, mouse
Description: Transient transfection and transcriptional analysis. Mouse melanoma tumors grown in culture were transfected with control vector or peptide II expressing luciferase or β-galactosidase constructs (Bhoumik et al., Clin. Cancer Res. 2001; 7(2):331-42). Transient transfection of different reporter constructs (0.5 cg) with expression vectors and pCMV-Cgal (0.25 Cg) into 5×10^5 melanoma cells was performed using Lipofectamine™ (Life Technologies-BRL). Transfection of the Jun2-luciferase construct permitted us to monitor activity of ATF2 and c-Jun. Jun2-Luc and TRE-Luc constructs were previously described (van Dam H., et al., EMBO J. 1993; 12:479-487; and van Dam H., et al., EMBO J. 1995; 14:1798-1811). Luciferase activity was determined using the Luciferase assay system (Promega®, Madison, Wis.) and normalized on the basis of β-galactosidase (β-Gal) levels in transfected cells. Proteins were prepared for β-Gal and Luciferase analysis at the selected time points after transfection.

SW1 melanoma tumors = assay: Growth and metastasis of SW1 tumors constitutively expressing peptide, C3H mice; assay type: in vivo
Description: Tumor growth and metastasis evaluation in vivo. Cell lines established in culture to constitutively or inducibly express the peptide were injected into mice subcutaneously (S.C.). LU1205, FEMX and SW-1 cells that expressed control or peptide II were trypsinized, resuspended in PBS and injected SC (1×10^6) into 6-7 week old mice in the lower flank. When the tumor reached the size of about 50 mm^3, 5 μM of SB203580 was injected into four areas of the LU1205 tumors every 4 days during a 2-week period. For FEMX tumors UCN-01 (2.5 mg/kg) was fed by gavage twice a day, three times per week for a total of 2 weeks. Tumor growth was monitored every two days. SW-1 cells expressing peptide II under tet-inducible vector were injected SC (1×10^6). When tumors reached a size of about 50 mm^3, the mice received doxycycline in their drinking water ([…]) for a total of 2-4 weeks. At the end of the experiment, the tumors were excised and weighed. The lungs and other organs were subjected to histopathological examination to detect metastatic lesions.

peptide II: N-terminal polypeptide fragment of ATF2, amino acid residues 50-100, expressed from pcDNA3 with HA-penetratin tag (EMTLKFGPARNDSVIVADQTPTPTRFLKNCEEVGLFNELASPFENEFKKAS; also: HA-penetratin tag, position not given here; UniProt P15336 50-100, looked up, fragment)
phosphorylation of the peptide by JNK (JNK): Neither JNK nor p38 was found capable of phosphorylating | transcriptional activities mediated by AP1 target sequences (AP1 complex): lower | cell surface expression of Fas, mean fluorescence intensity (Fas [1]): 186 | level of FAS on the cells (FAS [2]): greatly increased | decrease in basal levels of ATF2 transcriptional activities ([3]; SW1 clones constitutively expressing peptide): 5 fold | ATF2 transcriptional activities in response to UV-treatment ([3]; SW1 clones, UV): decrease | tumor size (SW1 melanoma tumors; 3-week period, control parent tumor 1800 mm^3): 100 mm^3 | tumor size (SW1 melanoma tumors; SC injection, analyzed three weeks later): very small tumors | average tumor size (SW1 melanoma tumors; at 72 days): about 1200 mm^3 | time for which tumor growth was completely blocked (SW1 melanoma tumors; constitutive expression): up to 35 days | apoptosis in tumors (tunnel assay) (SW1 melanoma tumors; excised SW1 tumors): substantially higher level of apoptosis | metastasis (SW1 melanoma tumors; monitored up to 72 days): no metastasis was seen
